The text below walks through data of patent US12410178B2, “Small cationic ortho-5,15-di-heteroaryl-porphyrin derivatives and their applications in photoinactivation of microorganisms” (UNIVERSIDADE DE COIMBRA, priority 2019, dated 2025).

This series is described as follows: Optical absorption, molar absorption coefficient. As to conditions: water with 9% dimethylsulfoxide. The series is classed as physicochemical. As for the experimental part: Optical Absorption: The ultra-violet visible optical absorption (UV-vis) spectra used in the control of the synthesis were recorded on Hitachi U-2001 or Shimadzu 2100 spectrophotometers using spectroscopic grade solvents. The UV-Vis-NIR optical absorption was recorded with an Agilent Cary5000 UV-Vis-NIR Spectrophotometer in the determination of the molar absorption coefficient and with Shimadzu UV-2100 spectrometer in routine measurements. The absorption spectra were recorded in the wavelengths from 300 nm up to 800 nm. Molar absorption coefficients were determined by using Beer-Lambert's law. For each compound, a minimum of 6 solutions were prepared in concentrations ranging from 10^−7 to 10^−6 M, giving absorbance values between 0.1 and 1.
The absorptivities of the compounds and other photophysical and photobiological properties were measured as described in the Materials and Methods. […] This is indicative of negligible aggregation between the molecules, which exist mostly as monomers at the studied concentrations in the selected solvents. […] The same table also presents the fluorescence quantum yield (ΦF), singlet oxygen generation (ΦΔ) and the logarithm of the n-octanol:water partition coefficient (log POW). […]

Consider `Cn1cc[n+](C)c1C1=C2C=CC3=[N+]2[Zn@]24[n]5c(ccc51)C=C1C=CC(=[N+]12)C(c1n(C)cc[n+]1C)=c1ccc([n]14)=C3` [Formula (IIa), 5,15-bis(1,3-dimethylimidazol-2-yl)porphyrinate zinc (II) diiodide], for which the “λ (most intense absorption band)” value is given as 407 nm. Besides, the “ε(λ)/10^3 molar absorption coefficient” value (at 407 nm) is >20 10^3 M^−1 cm^−1.
